From article PMC11036396 (2024)

Tests used:
[1] = system: Trp aptamer (Cy5-labelled, Trp aptamer sensor) (DNA, aptamer) AGCACGTTGGTTAGGTCAGGTTTGGGTTTCGTGC; assay: strand-displacement fluorescence; settings: 2.7 mM KCl, 5 mM MgCl2, 500 mM NaCl
[2] = system: Trp aptamer (Cy5-labelled, Trp aptamer sensor) (DNA, aptamer) AGCACGTTGGTTAGGTCAGGTTTGGGTTTCGTGC; assay: strand-displacement fluorescence titration (Langmuir fit); settings: 2.7 mM KCl, 5 mM MgCl2, 500 mM NaCl; TAB pH 7.4, 25 °C; displaces CS-10-BHQ2 quencher strand; 0.5 μM aptamer, 1.25 μM CS-10; apparent
[3] = TAB pH 7.4, displaces CS-10-BHQ2 quencher strand, distinguished from its precursor

COc1ccc2[nH]cc(C[C@H](N)C(=O)O)c2c1
binding [1, 3]: yes

N[C@@H](Cc1c[nH]c2ccccc12)C(=O)O
Ksens [2]: 3.3 [2.8–4.6, 95% credible region] mM

N[C@@H](Cc1c[nH]c2ccc(F)cc12)C(=O)O
binding [1, 3]: yes

N[C@@H](Cc1ccccc1)C(=O)O
binding ([1]; TAB pH 7.4, 25 °C, CS-10-BHQ2 quencher strand, highest concentration 5 mM): no

N[C@H](Cc1c[nH]c2ccccc12)C(=O)O
binding ([1]; TAB pH 7.4, 25 °C, displaces CS-10-BHQ2 quencher strand, 5 mM compound): yes
